Source: the kinase profiling compilation of Christmann-Franck et al. (2016)

Key:
Experiment in all cases: radiometric filter-binding kinase assay
[1] = molecular target: PKN2 (human) (UniProt Q16513); conditions: compound 100.0 µM; ATP 5 µM
[2] = molecular target: CaMK1 (human) (UniProt Q14012); conditions: compound 100.0 µM; ATP 50 µM
[3] = molecular target: INSRR (human) (UniProt P14616); conditions: compound 100.0 µM; ATP 5 µM
[4] = molecular target: GSK3B (human) (UniProt P49841); conditions: compound 100.0 µM; ATP 5 µM
[5] = molecular target: MARK2 (human) (UniProt Q7KZI7); conditions: compound 100.0 µM; ATP 20 µM
[6] = molecular target: MAPK1 (human) (UniProt P28482); conditions: compound 100.0 µM; ATP 20 µM
[7] = molecular target: STK11 CAB39 STRADA (human) (UniProt Q9Y376+Q7RTN6+Q15831); conditions: compound 100.0 µM; ATP 20 µM
[8] = molecular target: HIPK1 (human) (UniProt Q86Z02); conditions: compound 100.0 µM; ATP 20 µM
[9] = molecular target: PRKCZ (human) (UniProt Q05513); conditions: compound 100.0 µM; ATP 5 µM
[10] = molecular target: NTRK1 (human) (UniProt P04629); conditions: compound 100.0 µM; ATP 20 µM
[11] = molecular target: MELK (human) (UniProt Q14680); conditions: compound 100.0 µM; ATP 50 µM
[12] = molecular target: IKBKB (human) (UniProt O14920); conditions: compound 100.0 µM; ATP 5 µM
[13] = molecular target: SYK (human) (UniProt P43405); conditions: compound 100.0 µM; ATP 20 µM
[14] = molecular target: EPHB1 (human) (UniProt P54762); conditions: compound 100.0 µM; ATP 20 µM
[15] = molecular target: MAP3K11 (human) (UniProt Q16584); conditions: compound 100.0 µM; ATP 20 µM
[16] = molecular target: PRKCA (human) (UniProt P17252); conditions: compound 100.0 µM; ATP 20 µM
[17] = molecular target: EPHA2 (human) (UniProt P29317); conditions: compound 100.0 µM; ATP 50 µM
[18] = molecular target: PRKAA1 PRKAB2 PRKAG1 (human) (UniProt O43741+Q13131+P54619); conditions: compound 100.0 µM; ATP 20 µM
[19] = molecular target: EPHB3 (human) (UniProt P54753); conditions: compound 100.0 µM; ATP 20 µM
[20] = molecular target: CLK2 (human) (UniProt P49760); conditions: compound 100.0 µM; ATP 5 µM
[21] = molecular target: INSR (human) (UniProt P06213); conditions: compound 100.0 µM; ATP 20 µM
[22] = molecular target: IKBKE (human) (UniProt Q14164); conditions: compound 100.0 µM; ATP 50 µM
[23] = molecular target: PAK4 (human) (UniProt O96013); conditions: compound 100.0 µM; ATP 5 µM
[24] = molecular target: IGF1R (human) (UniProt P08069); conditions: compound 100.0 µM; ATP 5 µM
[25] = molecular target: HIPK2 (human) (UniProt Q9H2X6); conditions: compound 100.0 µM; ATP 5 µM
[26] = molecular target: BRSK2 (human) (UniProt Q8IWQ3); conditions: compound 100.0 µM; ATP 50 µM
[27] = molecular target: PIM2 (human) (UniProt Q9P1W9); conditions: compound 100.0 µM; ATP 5 µM
[28] = molecular target: MAPK10 (human) (UniProt P53779); conditions: compound 100.0 µM; ATP 20 µM
[29] = molecular target: MAP3K7 TAB1 (human) (UniProt Q15750+O43318); conditions: compound 100.0 µM; ATP 5 µM
[30] = molecular target: MAPK12 (human) (UniProt P53778); conditions: compound 100.0 µM; ATP 5 µM
[31] = molecular target: STK33 (human) (UniProt Q9BYT3); conditions: compound 100.0 µM; ATP 50 µM
[32] = molecular target: CAMKK2 (human) (UniProt Q96RR4); conditions: compound 100.0 µM; ATP 20 µM
[33] = molecular target: MST4 (human) (UniProt Q9P289); conditions: compound 100.0 µM; ATP 20 µM
[34] = molecular target: CDK2 CCNA2 (human) (UniProt P20248+P24941); conditions: compound 100.0 µM; ATP 20 µM
[35] = molecular target: NEK6 (human) (UniProt Q9HC98); conditions: compound 100.0 µM; ATP 50 µM

Chain of GSK3B (human) (P49841 whole entry, looked up): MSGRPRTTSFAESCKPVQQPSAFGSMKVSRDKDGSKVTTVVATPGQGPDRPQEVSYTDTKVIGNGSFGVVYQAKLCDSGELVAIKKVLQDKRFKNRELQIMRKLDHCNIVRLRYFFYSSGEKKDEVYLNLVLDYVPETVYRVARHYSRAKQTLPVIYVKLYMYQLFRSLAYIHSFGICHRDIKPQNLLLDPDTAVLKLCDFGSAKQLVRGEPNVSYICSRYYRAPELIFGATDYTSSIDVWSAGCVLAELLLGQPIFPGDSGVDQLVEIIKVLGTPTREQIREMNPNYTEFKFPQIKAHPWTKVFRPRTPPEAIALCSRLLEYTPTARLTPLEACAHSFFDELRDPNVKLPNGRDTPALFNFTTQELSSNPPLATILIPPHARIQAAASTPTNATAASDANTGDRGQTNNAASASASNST
Chain of CaMK1 (human) (Q14012 whole entry, looked up): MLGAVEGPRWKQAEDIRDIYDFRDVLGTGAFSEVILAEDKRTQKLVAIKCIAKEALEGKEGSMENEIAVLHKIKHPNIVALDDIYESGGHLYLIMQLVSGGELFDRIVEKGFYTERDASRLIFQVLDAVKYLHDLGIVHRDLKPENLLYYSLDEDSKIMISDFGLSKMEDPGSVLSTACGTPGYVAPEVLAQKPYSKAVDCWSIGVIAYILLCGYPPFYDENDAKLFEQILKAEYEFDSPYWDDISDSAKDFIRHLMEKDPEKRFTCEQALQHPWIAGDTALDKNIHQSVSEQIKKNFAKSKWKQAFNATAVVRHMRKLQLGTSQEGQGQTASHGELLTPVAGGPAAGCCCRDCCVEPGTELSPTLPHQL
Chain of MAPK10 (human) (P53779 whole entry, looked up): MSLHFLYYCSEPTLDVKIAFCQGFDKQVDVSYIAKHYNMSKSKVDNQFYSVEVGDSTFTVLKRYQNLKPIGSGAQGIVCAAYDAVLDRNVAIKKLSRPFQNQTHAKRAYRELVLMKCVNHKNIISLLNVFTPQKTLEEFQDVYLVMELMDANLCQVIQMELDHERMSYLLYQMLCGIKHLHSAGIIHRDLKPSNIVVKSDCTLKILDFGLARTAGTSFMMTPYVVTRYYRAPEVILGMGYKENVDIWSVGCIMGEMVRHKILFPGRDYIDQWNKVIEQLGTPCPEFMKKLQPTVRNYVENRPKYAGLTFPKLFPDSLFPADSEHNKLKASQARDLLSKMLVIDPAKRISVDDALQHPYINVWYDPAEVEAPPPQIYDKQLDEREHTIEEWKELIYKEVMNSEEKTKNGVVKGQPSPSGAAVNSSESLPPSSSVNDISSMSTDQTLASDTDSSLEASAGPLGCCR
Chain of STK33 (human) (Q9BYT3 whole entry, looked up): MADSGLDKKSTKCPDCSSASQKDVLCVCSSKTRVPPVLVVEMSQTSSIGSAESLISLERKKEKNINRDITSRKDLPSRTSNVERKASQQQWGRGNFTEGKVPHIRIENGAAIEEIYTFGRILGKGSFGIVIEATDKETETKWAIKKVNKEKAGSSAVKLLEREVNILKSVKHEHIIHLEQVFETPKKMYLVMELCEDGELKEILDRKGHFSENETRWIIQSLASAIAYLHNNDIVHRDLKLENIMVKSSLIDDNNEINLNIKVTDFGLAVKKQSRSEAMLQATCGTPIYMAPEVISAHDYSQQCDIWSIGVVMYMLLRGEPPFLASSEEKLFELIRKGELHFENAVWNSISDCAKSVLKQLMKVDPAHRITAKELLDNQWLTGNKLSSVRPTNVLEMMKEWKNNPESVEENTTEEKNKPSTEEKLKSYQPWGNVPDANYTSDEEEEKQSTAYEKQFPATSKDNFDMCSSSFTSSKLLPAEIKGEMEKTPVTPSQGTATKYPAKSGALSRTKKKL
Chain of HIPK1 (human) (Q86Z02 whole entry, looked up): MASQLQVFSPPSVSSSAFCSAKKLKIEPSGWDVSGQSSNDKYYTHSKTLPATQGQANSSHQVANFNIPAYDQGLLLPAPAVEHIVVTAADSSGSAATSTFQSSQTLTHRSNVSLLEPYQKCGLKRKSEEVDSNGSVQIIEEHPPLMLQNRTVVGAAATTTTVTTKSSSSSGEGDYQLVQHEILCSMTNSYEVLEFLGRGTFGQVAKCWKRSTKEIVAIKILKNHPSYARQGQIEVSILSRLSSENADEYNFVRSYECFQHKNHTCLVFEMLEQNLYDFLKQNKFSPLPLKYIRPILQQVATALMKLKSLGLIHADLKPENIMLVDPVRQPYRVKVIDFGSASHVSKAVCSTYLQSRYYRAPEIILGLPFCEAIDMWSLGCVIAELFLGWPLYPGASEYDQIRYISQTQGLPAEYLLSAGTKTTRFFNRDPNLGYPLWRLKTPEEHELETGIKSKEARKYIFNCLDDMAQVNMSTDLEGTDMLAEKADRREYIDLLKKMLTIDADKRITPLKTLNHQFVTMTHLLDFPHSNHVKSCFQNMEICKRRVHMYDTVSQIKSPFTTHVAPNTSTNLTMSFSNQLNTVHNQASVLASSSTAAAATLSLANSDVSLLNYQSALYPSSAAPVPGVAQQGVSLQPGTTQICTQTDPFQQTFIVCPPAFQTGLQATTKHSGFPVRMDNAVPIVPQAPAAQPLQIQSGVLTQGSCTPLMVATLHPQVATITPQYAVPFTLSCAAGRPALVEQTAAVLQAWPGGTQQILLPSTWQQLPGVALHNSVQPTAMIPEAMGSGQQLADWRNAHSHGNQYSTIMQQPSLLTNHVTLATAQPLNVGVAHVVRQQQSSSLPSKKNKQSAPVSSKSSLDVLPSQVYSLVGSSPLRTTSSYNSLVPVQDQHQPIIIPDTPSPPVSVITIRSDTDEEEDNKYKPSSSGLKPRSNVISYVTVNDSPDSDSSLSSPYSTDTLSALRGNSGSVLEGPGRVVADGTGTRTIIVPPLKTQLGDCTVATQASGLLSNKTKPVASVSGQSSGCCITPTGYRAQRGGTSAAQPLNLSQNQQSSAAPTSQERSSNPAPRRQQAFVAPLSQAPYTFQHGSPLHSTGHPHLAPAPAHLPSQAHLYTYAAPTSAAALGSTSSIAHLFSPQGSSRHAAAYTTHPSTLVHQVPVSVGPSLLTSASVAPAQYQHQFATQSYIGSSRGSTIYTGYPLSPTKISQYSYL
Chain of PRKCZ (human) (Q05513 whole entry, looked up): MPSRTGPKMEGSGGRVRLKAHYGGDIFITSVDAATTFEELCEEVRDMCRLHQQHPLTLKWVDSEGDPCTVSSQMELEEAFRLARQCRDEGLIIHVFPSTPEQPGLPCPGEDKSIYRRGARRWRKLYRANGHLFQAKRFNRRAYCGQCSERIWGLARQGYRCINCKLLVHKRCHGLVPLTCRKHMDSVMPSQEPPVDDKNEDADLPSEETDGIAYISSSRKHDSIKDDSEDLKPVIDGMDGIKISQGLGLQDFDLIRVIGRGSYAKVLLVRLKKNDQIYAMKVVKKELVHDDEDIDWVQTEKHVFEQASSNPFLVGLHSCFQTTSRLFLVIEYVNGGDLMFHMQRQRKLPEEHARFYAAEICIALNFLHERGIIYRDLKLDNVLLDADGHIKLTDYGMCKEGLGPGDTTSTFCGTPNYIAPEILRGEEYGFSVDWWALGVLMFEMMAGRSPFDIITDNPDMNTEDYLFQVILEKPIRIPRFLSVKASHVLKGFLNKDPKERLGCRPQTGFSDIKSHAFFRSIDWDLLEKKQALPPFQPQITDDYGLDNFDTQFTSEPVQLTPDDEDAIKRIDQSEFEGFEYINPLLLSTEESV
Chain of PKN2 (human) (Q16513 whole entry, looked up): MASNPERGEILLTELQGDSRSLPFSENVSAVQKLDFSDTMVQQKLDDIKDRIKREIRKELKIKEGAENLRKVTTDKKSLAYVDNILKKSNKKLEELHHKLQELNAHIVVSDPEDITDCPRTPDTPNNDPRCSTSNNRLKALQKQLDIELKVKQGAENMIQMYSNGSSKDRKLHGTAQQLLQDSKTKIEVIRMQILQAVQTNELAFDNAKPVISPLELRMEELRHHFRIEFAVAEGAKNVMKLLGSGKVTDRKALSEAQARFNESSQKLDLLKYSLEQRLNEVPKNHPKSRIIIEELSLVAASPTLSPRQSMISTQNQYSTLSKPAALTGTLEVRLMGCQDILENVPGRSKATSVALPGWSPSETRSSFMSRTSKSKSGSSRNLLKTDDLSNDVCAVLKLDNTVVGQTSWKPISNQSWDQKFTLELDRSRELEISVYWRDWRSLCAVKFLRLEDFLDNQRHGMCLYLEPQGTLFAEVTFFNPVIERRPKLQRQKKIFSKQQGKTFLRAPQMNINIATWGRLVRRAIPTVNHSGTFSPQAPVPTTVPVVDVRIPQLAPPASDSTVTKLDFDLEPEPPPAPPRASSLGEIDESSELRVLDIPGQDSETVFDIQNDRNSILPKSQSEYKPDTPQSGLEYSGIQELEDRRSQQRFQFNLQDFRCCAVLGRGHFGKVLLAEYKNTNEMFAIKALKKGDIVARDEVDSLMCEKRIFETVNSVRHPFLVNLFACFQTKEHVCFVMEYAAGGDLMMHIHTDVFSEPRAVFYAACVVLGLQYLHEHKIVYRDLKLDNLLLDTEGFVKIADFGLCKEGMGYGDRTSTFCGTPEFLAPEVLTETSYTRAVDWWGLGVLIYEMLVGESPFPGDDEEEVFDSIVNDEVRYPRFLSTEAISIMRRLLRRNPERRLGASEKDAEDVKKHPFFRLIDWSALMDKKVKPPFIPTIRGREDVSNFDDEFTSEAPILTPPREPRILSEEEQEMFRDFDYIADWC
Chain of MAPK12 (human) (P53778 whole entry, looked up): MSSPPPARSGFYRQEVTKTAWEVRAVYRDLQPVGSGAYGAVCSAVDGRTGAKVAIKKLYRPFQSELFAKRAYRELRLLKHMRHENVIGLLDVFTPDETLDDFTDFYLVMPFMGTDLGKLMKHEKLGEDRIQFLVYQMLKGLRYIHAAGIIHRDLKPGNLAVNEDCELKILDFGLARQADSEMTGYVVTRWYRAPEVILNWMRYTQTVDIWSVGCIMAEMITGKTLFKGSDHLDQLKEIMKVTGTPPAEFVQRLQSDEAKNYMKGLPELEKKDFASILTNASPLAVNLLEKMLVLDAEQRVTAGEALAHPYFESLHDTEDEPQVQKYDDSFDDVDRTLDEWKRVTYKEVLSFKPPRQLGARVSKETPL

Compound | inhibition [1] [%] | inhibition [2] [%] | inhibition [3] [%] | inhibition [4] [%] | inhibition [5] [%] | inhibition [6] [%] | inhibition [7] [%] | inhibition [8] [%] | inhibition [9] [%] | inhibition [10] [%] | inhibition [11] [%] | inhibition [12] [%] | inhibition [13] [%] | inhibition [14] [%] | inhibition [15] [%] | inhibition [16] [%] | inhibition [17] [%] | inhibition [18] [%] | inhibition [19] [%] | inhibition [20] [%] | further results
O=c1c(NC(=S)NCc2ccccc2)cnc2[nH]ccn12 | 0 | 6 | 0 | 13 | 0 | 0 | 0 | 0 | 0 | 0 | 0 | 0 | 12 | 3 | 11 | 2 | 12 | 0 | 0 | 3 | inhibition [21]: 0%; inhibition [22]: 0%; inhibition [23]: 18%; inhibition [24]: 0%; inhibition [25]: 0%; inhibition [26]: 18%; inhibition [27]: 4%; inhibition [28]: 0%; inhibition [29]: 20%; inhibition [30]: 0%; inhibition [31]: 13%; inhibition [32]: 0%; inhibition [33]: 0%; inhibition [34]: 0%; inhibition [35]: 6%
Cc1cccc(C)c1-c1cn2nc(N)nc2cn1 | 93 | 52 | 24 | 27 | 0 | 14 | 0 | 16 | 6 | 8 | 8 | 0 | 26 | 22 | 0 | 9 | 11 | 12 | 35 | 33 | inhibition [21]: 24%; inhibition [22]: 28%; inhibition [23]: 0%; inhibition [24]: 5%; inhibition [25]: 8%; inhibition [26]: 18%; inhibition [27]: 2%; inhibition [28]: 17%; inhibition [29]: 3%; inhibition [30]: 0%; inhibition [31]: 12%; inhibition [32]: 21%; inhibition [33]: 21%; inhibition [34]: 17%; inhibition [35]: 3%
CC(=O)Nc1nc2cnc(-c3c(C)cccc3C)cn2n1 | 0 | 35 | 0 | 8 | 0 | 0 | 0 | 0 | 0 | 0 | 0 | 0 | 10 | 0 | 0 | 0 | 0 | 0 | 4 | 28 | inhibition [21]: 0%; inhibition [22]: 0%; inhibition [23]: 0%; inhibition [24]: 0%; inhibition [25]: 18%; inhibition [26]: 11%; inhibition [27]: 5%; inhibition [28]: 0%; inhibition [29]: 0%; inhibition [30]: 0%; inhibition [31]: 0%; inhibition [32]: 18%; inhibition [33]: 0%; inhibition [34]: 0%; inhibition [35]: 0%
